In US20240366624A1, “METHODS AND COMPOSITIONS FOR TREATING THROMBOTIC DISEASE” (Washington University, priority 2023, published 2024):

Experiments:
WT mouse platelets = experiment: Platelet aggregation, WT mouse platelets; type: cell-based
Description: FIG. 9(A-C) is an exemplary embodiment of EN460 inhibiting thrombin-induced aggregation of mouse and human platelets in accordance with the present disclosure. (A) Human (FIG. 9A), WT (FIG. 9B), and Ero1α-null (FIG. 9C) platelets were pretreated with EN460, an ERO1α inhibitor, at 1, 3, or 10 μM, and treated with 0.025 U/ml thrombin to induce platelet aggregation. The data represent the mean±SD (n=3). P values determined by ANOVA and Dunnett's test (FIG. 9(A-B)) or Student's t-test (FIG. 9C).
FIG. 10(A-E) is an exemplary embodiment of 15E9 not affecting platelet activation and aggregation in accordance with the present disclosure. […] P values determined by unpaired Student's t-test (vs. mIgG1).
FIG. 18(A-R) is an exemplary embodiment of novel small-molecule inhibitors recapitulating the defect in Ero1α (endoplasmic reticulum oxidoreductase 1a)-null platelets in accordance with the present disclosure. […] After incubation with a different concentration of B12-5, the specific interaction between B12-5 and ERO1α was measured by subtracting the nonspecific binding. The KD value was calculated from the Kon and Koff values. […] P values determined by ANOVA and Dunnett test (FIG. 18(B-E), FIG. 18(1-L), and FIG. 18(O-R) [for B12-5]) or Student t test (FIG. 18M, FIG. 18N, and FIG. 18(O-R) [for BAPTA (1,2-bis(o-aminophenoxy)ethane-N,N,N′,N′-tetraacetic acid)]).

human platelets = experiment: Flow cytometry of P-selectin exposure and αIIbβ3 integrin activation, human platelets; type: cell-based; conditions: 3 to 10 μM, human platelets, thrombin or CRP
Source text: (§1) FIG. 18(A-R) is an exemplary embodiment of novel small-molecule inhibitors recapitulating the defect in Ero1α (endoplasmic reticulum oxidoreductase 1a)-null platelets in accordance with the present disclosure. FIG. 18A: The structure of B12 and its inhibitory effect on ERO1α activity. FIG. 18(B-E): The inhibitory effect of B12 on P-selectin exposure and αIIbβ3 integrin activation in (FIG. 18B and FIG. 18C) mouse and (FIG. 18D and FIG. 18E) human platelets. FIG. 18F: The structure of B12-5 and its inhibitory effect on ERO1α activity. FIG. 18G: A docking model of B12-5-ERO1α (3AHQ) and flavin adenine dinucleotide (FAD)-ERO1α complex. There are pi-sulfur interactions of the phenothiazine head group (B112-5) or a tricyclic ring (FAD) with Met389 and Cys397. Also, there are H bond interactions between the tail/alkyl group and His255, Asn259, and Arg287. […] After incubation with a different concentration of B12-5, the specific interaction between B12-5 and ERO1α was measured by subtracting the nonspecific binding. The KD value was calculated from the Kon and Koff values. […] P values determined by ANOVA and Dunnett test (FIG. 18(B-E), FIG. 18(1-L), and FIG. 18(O-R) [for B12-5]) or Student t test (FIG. 18M, FIG. 18N, and FIG. 18(O-R) [for BAPTA (1,2-bis(o-aminophenoxy)ethane-N,N,N′,N′-tetraacetic acid)]). […]

ERO1α = molecular target: T1, ERO1α (Homo sapiens, UniProt Q96HE7); experiment: Bio-layer interferometry, B12-5 on biotinylated ERO1α biosensor; conditions: read-out: KD, binding to ERO1α
T1 sequence (Q96HE7 24-468): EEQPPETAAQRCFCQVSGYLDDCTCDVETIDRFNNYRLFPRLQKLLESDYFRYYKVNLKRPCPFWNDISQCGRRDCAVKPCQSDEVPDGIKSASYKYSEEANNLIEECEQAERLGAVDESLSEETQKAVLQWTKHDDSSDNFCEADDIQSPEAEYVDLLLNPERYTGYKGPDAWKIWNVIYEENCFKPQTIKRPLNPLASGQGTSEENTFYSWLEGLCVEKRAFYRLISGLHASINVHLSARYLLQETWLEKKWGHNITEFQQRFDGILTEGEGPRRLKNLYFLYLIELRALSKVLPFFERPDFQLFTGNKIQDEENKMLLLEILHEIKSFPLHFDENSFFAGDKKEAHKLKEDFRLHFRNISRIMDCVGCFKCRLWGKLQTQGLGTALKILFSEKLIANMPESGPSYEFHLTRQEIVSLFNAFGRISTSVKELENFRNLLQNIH
Source text: as §1

O=C(O)c1cc(N2N=C(C(F)(F)F)/C(=C/c3ccc(-c4ccccc4)o3)C2=O)ccc1Cl [EN460]
thrombin-induced aggregation (WT mouse platelets; 3 to 10 μM, mouse platelets): abrogated

O=C(CSc1nc(O)cc(O)n1)N1c2ccccc2Sc2ccccc21 [B12-5]
P-selectin exposure and αIIbβ3 activation (human platelets): significantly reduced | thrombin- or CRP-induced WT platelet aggregation (WT mouse platelets; 10 μM): significantly mitigated | Kd (ERO1α): 12.9 ± 3.8 µM
